Measurements: patent US5886007A (priority 1997, dated 1999)
Like-named read-outs stand apart in the source and are kept apart here.

Tests used:
rat brain AChE = biological target: T1, rat brain AChE (Rattus norvegicus, UniProt P37136); assay: biochemical
T1 construct: Rat brain homogenate prepared in 10 ml/g 10 mM Tris, pH 7.4, plus 1% Triton X-100 was used as a source of AChE; from tissue; host or cells: rat brain homogenate (10 mM Tris, pH 7.4, 1% Triton X-100)

rat serum BChE = biological target: T2, rat serum BChE (Rattus norvegicus, UniProt Q9JKC1); assay: biochemical
T2 construct: rat serum was the source of BChE; from tissue; host or cells: rat serum
T2 sequence (Q9JKC1 24-597): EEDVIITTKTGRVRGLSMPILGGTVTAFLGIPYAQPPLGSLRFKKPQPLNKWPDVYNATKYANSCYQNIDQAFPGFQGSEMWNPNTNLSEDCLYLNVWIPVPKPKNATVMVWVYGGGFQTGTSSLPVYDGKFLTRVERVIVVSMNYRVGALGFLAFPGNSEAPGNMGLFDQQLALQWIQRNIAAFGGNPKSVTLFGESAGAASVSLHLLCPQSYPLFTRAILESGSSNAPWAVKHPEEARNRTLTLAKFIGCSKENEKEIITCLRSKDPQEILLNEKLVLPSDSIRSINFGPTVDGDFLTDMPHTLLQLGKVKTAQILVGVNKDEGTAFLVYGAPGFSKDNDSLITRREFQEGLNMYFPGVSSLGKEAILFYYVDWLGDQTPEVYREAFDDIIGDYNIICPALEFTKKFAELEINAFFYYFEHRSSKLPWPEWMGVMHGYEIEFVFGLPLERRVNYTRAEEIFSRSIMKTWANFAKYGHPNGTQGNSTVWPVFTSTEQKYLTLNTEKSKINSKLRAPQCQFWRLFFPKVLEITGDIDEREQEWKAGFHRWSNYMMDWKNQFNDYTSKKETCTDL

[1] = current use of THA limited; cited from earlier work

T1 sequence (P37136 32-614): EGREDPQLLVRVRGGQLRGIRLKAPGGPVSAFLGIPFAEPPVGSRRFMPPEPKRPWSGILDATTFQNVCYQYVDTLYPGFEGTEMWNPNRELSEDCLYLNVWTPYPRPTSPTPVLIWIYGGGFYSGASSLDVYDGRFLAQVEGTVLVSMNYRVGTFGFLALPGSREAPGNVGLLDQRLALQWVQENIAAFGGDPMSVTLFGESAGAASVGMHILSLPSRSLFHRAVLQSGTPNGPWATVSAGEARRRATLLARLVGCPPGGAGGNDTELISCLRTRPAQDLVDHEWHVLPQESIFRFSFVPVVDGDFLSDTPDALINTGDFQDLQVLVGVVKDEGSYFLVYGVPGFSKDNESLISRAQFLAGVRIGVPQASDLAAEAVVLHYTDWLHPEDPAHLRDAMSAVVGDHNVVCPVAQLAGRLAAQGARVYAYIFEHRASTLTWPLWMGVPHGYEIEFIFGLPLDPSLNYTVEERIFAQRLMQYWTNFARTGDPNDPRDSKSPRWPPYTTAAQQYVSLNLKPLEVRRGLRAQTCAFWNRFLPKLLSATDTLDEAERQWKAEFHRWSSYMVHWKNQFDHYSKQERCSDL

## c1ccc(CCCCCCNc2c3c(nc4ccccc24)CCCC3)cc1 [2c, (6-Phenyl-hexyl)-(1,2,3,4-tetrahydro-acridine-9-yl)-amine]
Rat brain AChE
  IC50: 520 nM
  Selectivity: 1.5
Rat serum BChE
  IC50: 800 nM

## c1ccc(CCCCNc2c3c(nc4ccccc24)CCCC3)cc1 [2a, (4-Phenyl-butyl)-(1,2,3,4-tetrahydro-acridine-9-yl)-amine]
Rat brain AChE
  IC50: 1500 nM

## Nc1c2c(nc3ccccc13)CCCC2 [THA, 9-amino-1,2,3,4-tetrahydroacridine]
[1]
  hepatoxicity: serious hepatoxicity

## c1ccc(CCCCCNc2c3c(nc4ccccc24)CCCC3)cc1 [2b, (5-Phenyl-pentyl)-(1,2,3,4-tetrahydro-acridine-9-yl)-amine]
Rat brain AChE
  Selectivity: 0.3
Rat brain AChE; pH 7.4, read-out: IC50 rat brain AChE
  IC50: 1500 nM
Rat serum BChE
  IC50: 500 nM

## c1ccc(CCCCCCCCNc2c3c(nc4ccccc24)CCCC3)cc1 [2e, (8-Phenyl-octyl)-(1,2,3,4-tetrahydro-acridine-9-yl)-amine]
Rat brain AChE
  IC50: 220 nM
  Selectivity: 9.1
  potency of 2e and THA relative to compound 1a against rat brain AChE: weaker
  potency ranking within class / chain length dependence of AChE inhibition: the most potent
  relative potency of 2e and THA against rat brain AChE: nearly equipotent
Rat serum BChE
  IC50: 2000 nM

## c1ccc2c(NCCCCCCCCCCNc3c4c(nc5ccccc35)CCCC4)c3c(nc2c1)CCCC3 [1d, 1-10-n-Decylene-bis-9,9'-amino-1,2,3,4-tetrahydroacridine]
Rat brain AChE
  IC50: 2 nM
  Selectivity: 180.0
Rat serum BChE
  IC50: 360 nM

## c1ccc2c(NCCCCCCCNc3c4c(nc5ccccc35)CCCC4)c3c(nc2c1)CCCC3 [1a, 1-7-n-Heptylene-bis-9,9'-amino-1,2,3,4-tetrahydroacridine]
Rat brain AChE
  times more potent than THA in inhibiting rat brain AChE: 1000 times

## c1ccc2c(NCCCCCCCCNc3c4c(nc5ccccc35)CCCC4)c3c(nc2c1)CCCC3 [1b, 1-8-n-Octylene-bis-9,9'-amino-1,2,3,4-tetrahydroacridine]
Rat brain AChE
  IC50: 0.5 nM
  Selectivity: 432.0
Rat serum BChE
  IC50: 216 nM

## c1ccc(CCCCCCCNc2c3c(nc4ccccc24)CCCC3)cc1 [2d, (7-Phenyl-heptyl)-(1,2,3,4-tetrahydro-acridine-9-yl)-amine]
Rat brain AChE
  IC50: 360 nM
  Selectivity: 2.8
Rat serum BChE; read-out: IC50 rat serum BChE
  IC50: 1000 nM

## c1ccc(CCCCCCCCCCNc2c3c(nc4ccccc24)CCCC3)cc1 [2g, (10-Phenyl-decyl)-(1,2,3,4-tetrahydro-acridine-9-yl)-amine]
Rat brain AChE
  IC50: 3000 nM

## c1ccc(CCCCCCCCCNc2c3c(nc4ccccc24)CCCC3)cc1 [2f, (9-Phenyl-nonyl)-(1,2,3,4-tetrahydro-acridine-9-yl)-amine]
Rat brain AChE
  IC50: 3000 nM
  Selectivity: 3.3
Rat serum BChE
  IC50: 10000 nM
